Measured values published in the supplement of paper PMC10878532, “Sperm Toolbox—A selection of small molecules to study human spermatozoa” (PLOS ONE, 2024).
Where a name gives a salt, the structure may show the parent alone.

Tests used:
[1] = system: human spermatozoa; experiment: progressively motile sperm, percent change vs DMSO (capacitating); higher = more of the measured sperm population than DMSO, for viability, fewer PI-positive (dead) cells than DMSO; settings: incubation time: 30min incubation
[2] = system: human spermatozoa; experiment: progressively motile sperm, percent change vs DMSO (non-capacitating); higher = more of the measured sperm population than DMSO, for viability, fewer PI-positive (dead) cells than DMSO; extreme values may be limits of the assay
[3] = system: human spermatozoa; experiment: viability fold change, 1 - (PI-positive fraction / DMSO median); higher = more of the measured sperm population than DMSO, for viability, fewer PI-positive (dead) cells than DMSO; settings: incubation time: 3h, non-capacitating
[4] = system: human spermatozoa; experiment: acrosome-reacted (PNA+) sperm after agonist cocktail, percent change vs DMSO (capacitating); higher = more of the measured sperm population than DMSO, for viability, fewer PI-positive (dead) cells than DMSO; settings: incubation time: 3h, capacitating + agonist cocktail 1h
[5] = system: HepG2; experiment: HepG2 toxicity (resazurin), effect normalised to DMSO (DMSO = 0); higher = more features changed / larger toxic effect; settings: incubation time: 70h incubation
[6] = system: HeLa; experiment: HeLa toxicity: nuclei-count effect normalised to DMSO (DMSO = 0); higher = more features changed / larger toxic effect; settings: incubation time: 24h incubation
[7] = system: HeLa; experiment: Cell Painting percent induction (share of features beyond 2 z-scores vs DMSO); higher = more features changed / larger toxic effect; extreme values may be limits of the assay; settings: incubation time: 24h incubation
[8] = system: human spermatozoa; experiment: change in acrosome-reacted (PNA+) sperm vs DMSO, no agonist (capacitating); higher = more of the measured sperm population than DMSO, for viability, fewer PI-positive (dead) cells than DMSO; settings: incubation time: 3h
[9] = system: human spermatozoa; experiment: total motile sperm, percent change vs DMSO (non-capacitating); higher = more of the measured sperm population than DMSO, for viability, fewer PI-positive (dead) cells than DMSO
[10] = system: human spermatozoa; experiment: hyperactivated motile sperm, percent change vs DMSO (capacitating); higher = more of the measured sperm population than DMSO, for viability, fewer PI-positive (dead) cells than DMSO; settings: incubation time: 30min incubation
[11] = incubation time: 10min incubation, 9.99 µM
[12] = incubation time: 10min incubation, 29.9 µM
[13] = incubation time: 3h incubation, 9.99 µM
[14] = incubation time: 3h incubation, 29.9 µM
[15] = incubation time: 6h incubation, 9.99 µM
[16] = incubation time: 6h incubation, 29.9 µM
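For progressively motile sperm, percent change vs DMSO (non-capacitating) in this document: pooled live human sperm from at least 3 donors, tracked by automated microscopy in 0.5 s time-lapse movies, compounds at 10 and 30 µM, versus median of 16 DMSO wells per plate.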
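For total motile sperm, percent change vs DMSO (non-capacitating) in this document: sperm pooled from at least 3 donors, tracked in 0.5 s time-lapse movies by automated microscopy after 10 min, 3 h or 6 h with compound at 10 or 30 µM.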

SMILES	progressively motile sperm ([1]; 9.99 µM)	progressively motile sperm ([1]; 29.9 µM)	progressively motile sperm [2, 11]	progressively motile sperm [2, 12]	progressively motile sperm [2, 13]	progressively motile sperm [2, 14]	progressively motile sperm [2, 15]	progressively motile sperm [2, 16]	viability fold change ([3]; 9.99 µM)	viability fold change ([3]; 29.9 µM)	acrosome-reacted ([4]; 9.99 µM)	acrosome-reacted ([4]; 29.9 µM)	HepG2 toxicity ([5]; 10 µM)	HepG2 toxicity ([5]; 30 µM)	HeLa toxicity: nuclei-count effect normalised ([6]; 9.99 µM)	HeLa toxicity: nuclei-count effect normalised ([6]; 29.9 µM)	Cell Painting percent induction ([7]; 9.99 µM)	Cell Painting percent induction ([7]; 29.9 µM)	change in acrosome-reacted ([8]; 9.99 µM)	change in acrosome-reacted ([8]; 29.9 µM)	total motile sperm [9, 11]	total motile sperm [9, 12]	total motile sperm [9, 13]	total motile sperm [9, 14]	total motile sperm [9, 15]	total motile sperm [9, 16]	hyperactivated motile sperm ([10]; 9.99 µM)	hyperactivated motile sperm ([10]; 29.9 µM)
C=C[C@@]1(C)CC(=O)[C@@]2(O)[C@](C)(O1)[C@@H](OC(C)=O)[C@@H](O)C1C(C)(C)CC[C@H](O)[C@@]12C (some centres not stated) [Forskolin]	7.73%	8.32%	0.859%	0.86%	3.82%	13.8%	-0.781%	12%	-0.712	-0.989	0.165%	-4.34%	3.42%	-7.11%	-1.74%	-1.47%	1.19%	0.108%	0.404%	0.226%	0.618%	0.675%	-0.0205%	4.68%	-0.697%	-0.227%	26.6%	5.16%
O=c1c(-c2ccc(O)cc2)coc2cc(O)cc(O)c12 [Genistein]	9.31%	12%	5.98%	2.04%	6.38%	0.504%	9.21%	2.89%	-0.643	-0.0998	4.37%	8.14%	6.96%	-8.2%	17.4%	22.9%	0.108%	0.612%	1.12%	1.51%	-0.344%	-2.3%	-0.864%	0.829%	-0.945%	-6.76%	20.2%	-0.318%
Cc1cc2c(C(C)C)c(O)c(O)c(C=O)c2c(O)c1-c1c(C)cc2c(C(C)C)c(O)c(O)c(C=O)c2c1O [Gossypol]	-0.382%	7.08%	-3.27%	-2.36%	3.33%	-8.54%	12.2%	-12.2%	-0.0154	0.577	-15.6%	-28.9%	54.9%	102%	27.1%	73.1%	0.072%	17.1%	1.41%	1.17%	-1.73%	0.377%	-2.73%	-0.0743%	-0.633%	-2.29%	-21.9%	-39.1%
O=S(=O)(NCCNC/C=C/c1ccc(Br)cc1)c1cccc2cnccc12 [H 89 dihydrochloride]	9.41%	1.95%	12.9%	3.24%	21.9%	3.91%	27.7%	10.5%	-0.8	-1.21	4.9%	11.9%	-3.98%	92.3%	7.55%	17.5%	0.648%	1.84%	0.62%	0.493%	5.7%	1.67%	2.42%	2.31%	2.24%	1.63%	4.83%	-35.2%
